Test system: 282377-053-R-J1-PDC tumor spheroids, viability
Assay: Anticancer human tumor 282377-053-R-J1-PDC patient-derived colon adenocarcinoma cell line growth inhibition [TAK]
Details: spheroids with HUVEC and MSC; for IC50: curve of first compound; for viability, T/C: stronger effect = lower value
Summary of the method: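 Spheroids of 60% malignant cells, 25% HUVEC and 15% hMSC were exposed to targeted agents combined with TAK-243 or ipatasertib. Concentrations started at or near clinical Cmax (10 microM if unknown) and descended in half-log steps.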
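Note: spheroids exposed to drugs for seven days before readout.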

CC(C)CC(NC(=O)CNC(=O)c1cc(Cl)ccc1Cl)B1OC(=O)CC(CC(=O)O)(C(=O)O)O1 (stereo not given) + CC(C)NCC(C(=O)N1CCN(c2ncnc3c2C(C)CC3O)CC1)c1ccc(Cl)cc1
IC50 (second compound 0.3 µM): 0.0538 µM
IC50 (second compound 0.949 µM): 0.0479 µM
IC50 (second compound 3 µM): 0.0438 µM
IC50 (second compound 9.49 µM): 0.0393 µM
IC50 (second compound 30 µM): 0.0363 µM
viability, T/C (second compound 0.3 µM, first compound 0.000316 µM): 99.5%
viability, T/C (second compound 0.3 µM, first compound 0.001 µM): 93.9%
viability, T/C (second compound 0.3 µM, first compound 0.00316 µM): 94.3%
viability, T/C (second compound 0.3 µM, first compound 0.01 µM): 92.7%
viability, T/C (second compound 0.3 µM, first compound 0.0316 µM): 89.7%
viability, T/C (second compound 0.3 µM, first compound 0.1 µM): 3.57%
viability, T/C (second compound 0.949 µM, first compound 0.000316 µM): 100%
viability, T/C (second compound 0.949 µM, first compound 0.001 µM): 88.3%
viability, T/C (second compound 0.949 µM, first compound 0.00316 µM): 87.1%
viability, T/C (second compound 0.949 µM, first compound 0.01 µM): 94.5%
viability, T/C (second compound 0.949 µM, first compound 0.0316 µM): 77.1%
viability, T/C (second compound 0.949 µM, first compound 0.1 µM): 1.73%
viability, T/C (second compound 3 µM, first compound 0.000316 µM): 82.4%
viability, T/C (second compound 3 µM, first compound 0.001 µM): 87.8%
viability, T/C (second compound 3 µM, first compound 0.00316 µM): 84.2%
viability, T/C (second compound 3 µM, first compound 0.01 µM): 84.5%
viability, T/C (second compound 3 µM, first compound 0.0316 µM): 69.2%
viability, T/C (second compound 3 µM, first compound 0.1 µM): 1.39%
viability, T/C (second compound 9.49 µM, first compound 0.000316 µM): 81.3%
viability, T/C (second compound 9.49 µM, first compound 0.001 µM): 79.3%
viability, T/C (second compound 9.49 µM, first compound 0.00316 µM): 81.7%
viability, T/C (second compound 9.49 µM, first compound 0.01 µM): 77.5%
viability, T/C (second compound 9.49 µM, first compound 0.0316 µM): 61.5%
viability, T/C (second compound 9.49 µM, first compound 0.1 µM): 1.53%
viability, T/C (second compound 30 µM, first compound 0.000316 µM): 70.2%
viability, T/C (second compound 30 µM, first compound 0.001 µM): 74.6%
viability, T/C (second compound 30 µM, first compound 0.00316 µM): 67.7%
viability, T/C (second compound 30 µM, first compound 0.01 µM): 66.8%
viability, T/C (second compound 30 µM, first compound 0.0316 µM): 57.3%
viability, T/C (second compound 30 µM, first compound 0.1 µM): 0.99%

From PubChem BioAssay AID2060360 (Molecular Pharmacology Branch, DTP, NCI, 2025)
